The inhibition is the drop in the measured response relative to a control, in per cent. Higher therefore signals strong suppression.

The test system of the experiment is MDA-MB-231. Nature of the experiment: Antiproliferative activity against human MDA-MB-231 cells at 2 mM after 72 hrs by MTS/PMS assay. As to conditions: MDA-MB-231, 72 h.
Consider `N#Cc1ccc(NC(=O)c2ccc(NCc3ccc(F)cc3)c([N+](=O)[O-])c2)cc1C(F)(F)F`, for which the inhibition at 2000 µM turned out to be 0%.
Compound `N#Cc1ccc(NC(=O)c2ccc(NCc3ccc(F)cc3)c(NC(=O)c3ccc(Cl)cc3Cl)c2)cc1C(F)(F)F` gave an inhibition at 2000 µM of 0%.
To `N#Cc1ccc(NC(=O)c2ccc(F)c([N+](=O)[O-])c2)cc1C(F)(F)F` belongs 60%; to `N#Cc1ccc(NC(=O)c2ccc(NCc3ccc(F)cc3)c(N)c2)cc1C(F)(F)F`, 9.8%; to `N#Cc1ccc(NC(=O)c2ccc3c(c2)nc(-c2ccc(Cl)cc2Cl)n3Cc2ccc(F)cc2)cc1C(F)(F)F`, 26.1%.
